Test results taken from patent US20110046223A1, “TREATMENT OF NEUROFIBROMATOSIS” (RAMOT AT TEL-AVIV UNIVERSITY LTD., priority 2006, published 2011).

Assays:
[1] = system: RalA-GTP; assay: steady-state RalA-GTP, GST-RalBD pulldown assay; format: cell-based, human
Experimental: Unless otherwise indicated, cells were lysed 48 hours after being treated with lysis buffer, as described in Haklai, et al., supra. […] Protein bands were visualized by ECL and quantified by densitometry with Image Master VDS-CL (Amersham) using TINA 2.0 software (Ray Tests). To obtain reliable comparisons between replicated experiments for statistical analysis, a standardization procedure was used, in which the density of each given protein band as recorded with its specific Ab, was normalized. […] The standard average density was defined as 1.0, and each of the individually determined bands was related to this value. […] Actin cytoskeletal elements were labeled with rhodamine-phalloidin, and digital fluorescence images were collected on a Zeiss LSM 510 confocal microscope fitted with fluorescein and rhodamine filters, as described in Gana-Weisz, M., et al., supra.
Next, to determine whether down-regulation of active Ras by FTS was accompanied by inhibition of Ras signaling, the effect of FTS on steady-state levels of phospho-ERK, phospho-Akt, and RalA-GTP as read-outs of the three prominent Ras pathways, Ras/Raf/MEK/ERK, Ras/PI3K/Akt, and Ras/RalGEF/RalA, respectively, was examined. […]

[2] = system: NF-1 cell lines T265P21, ST88-14, and 90-8; assay: actin stress fibers, rhodamine-phalloidin confocal microscopy; format: cell-based, human; conditions: T265P21, ST88-14, and 90-8, 75 μM FTS; controls 82%-87%
Experimental: (§1) The human NF-1 MPNST cell lines ST88-14, T265P21 and 90-8 and the non-NF-1 human MPNST cell line STS26T were obtained from Dr. Nancy Ratner. T265P21, 90-8, and ST88-14 cells were maintained in RPMI/15% fetal calf serum (FCS) medium and STS26T cells were maintained in DMEM/10% FCS, as described in Weisz, B., et al., supra. Cells were plated at a density of 1×10^6 cells per 10-cm plate for biochemical and immunoblotting assays, 2.5×10^3 cells/well in 24-well plates for cell-growth assays, or on glass cover slips (5×10^4 cells per 35-mm dish) for labeling of actin cytoskeletal elements. […]
(§2) Unless otherwise indicated, cells were lysed 48 hours after being treated with lysis buffer, as described in Haklai, et al., supra. […] Protein bands were visualized by ECL and quantified by densitometry with Image Master VDS-CL (Amersham) using TINA 2.0 software (Ray Tests). To obtain reliable comparisons between replicated experiments for statistical analysis, a standardization procedure was used, in which the density of each given protein band as recorded with its specific Ab, was normalized. […] The standard average density was defined as 1.0, and each of the individually determined bands was related to this value. […]

[3] = system: non-NF-1 STS26T cells; assay: as above; format: cell-based, human; conditions: 75 μM FTS, mean±SD, n=3, P<0.05
Experimental: as §1, §2

[4] = human, doses up to 1800 mg/day; cited from earlier work

With CC(C)=CCC/C(C)=C/CC/C(C)=C/CSc1ccccc1C(=O)O [FTS, S-farnesylthiosalicylic acid] the “steady-state RalA-GTP” value ([1]; all NF-1 cell lines) was “significant reduction”, the “steady-state RalA-GTP” value ([1]; non-NF-1 STS26T cells) was “significant reduction” and the “cells with stress fibers after FTS, relative to total cell number” value [2] was 11%-20%. For the same compound, the “increase in stress-fiber formation” value [3] was 27%±11.9% and the dose-limiting toxicities [4] was “no dose-limiting toxicities”.
